Patent US20260306642A1, “STAT DEGRADERS AND USES THEREOF” (Recludix Pharma, Inc., priority 2023, published 2026)
Like-named read-outs stand apart in the source and are kept apart here.

Key:
STAT6 = target: T1, STAT6 (Homo sapiens, UniProt P42226); test: STAT6 Fluorescence Polarization (FP) Assay; type: binding
T1 construct: Recombinant STAT6 protein (STAT6(W123-T658))
T1 sequence (P42226 123-658): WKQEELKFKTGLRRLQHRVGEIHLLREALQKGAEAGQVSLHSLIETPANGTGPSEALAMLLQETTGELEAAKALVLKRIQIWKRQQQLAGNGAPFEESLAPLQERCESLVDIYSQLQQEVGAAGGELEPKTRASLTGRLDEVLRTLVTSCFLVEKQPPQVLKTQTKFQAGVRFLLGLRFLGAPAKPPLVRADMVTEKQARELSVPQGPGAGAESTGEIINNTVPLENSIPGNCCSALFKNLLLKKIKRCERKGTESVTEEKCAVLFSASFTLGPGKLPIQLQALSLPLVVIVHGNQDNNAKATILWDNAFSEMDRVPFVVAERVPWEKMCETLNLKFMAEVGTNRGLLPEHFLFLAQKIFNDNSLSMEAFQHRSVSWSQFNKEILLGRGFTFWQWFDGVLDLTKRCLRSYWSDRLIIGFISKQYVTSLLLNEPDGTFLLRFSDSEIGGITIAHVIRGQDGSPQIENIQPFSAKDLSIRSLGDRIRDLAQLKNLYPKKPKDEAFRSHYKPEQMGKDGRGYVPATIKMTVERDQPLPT
Protocol: An FP assay was developed to determine IC50 values for test substances. Recombinant STAT6 protein (STAT6(W123-T658)) at 250 nM was combined with a fluorescently labeled, phosphotyrosine peptide probe (5-FAM-ApYKPFQDLI-NH2) at 2 nM in FP buffer (10 mM HEPES pH 7.4, 50 mM NaCl, 1 mM EDTA, 0.05% Tween 20, 2 mM DTT). 50 μL of STAT6-probe mixture was added to serial diluted compounds in black, 96-well plates (Greiner BioOne 655076) to a final concentration of 1% DMSO. Reaction components were mixed, and FP was measured after 45-minute incubation at room temperature using a Tecan Spark multimode plate reader. FP signal (mP) was plotted against the log concentration of the test substances and IC50 values were calculated by nonlinear regression analysis using GraphPad Prism software. For STAT6 FP assay, A=≤300 nM; B=>300-3000 nM; C=>3-30 μM; and D=>30 μM.

STAT3 = target: T2, STAT3 (Homo sapiens, UniProt P40763); test: STAT3 Fluorescence Polarization (FP) Assay; type: binding
T2 construct: Recombinant STAT3 protein (STAT3(G127-I722))
T2 sequence (P40763 127-722): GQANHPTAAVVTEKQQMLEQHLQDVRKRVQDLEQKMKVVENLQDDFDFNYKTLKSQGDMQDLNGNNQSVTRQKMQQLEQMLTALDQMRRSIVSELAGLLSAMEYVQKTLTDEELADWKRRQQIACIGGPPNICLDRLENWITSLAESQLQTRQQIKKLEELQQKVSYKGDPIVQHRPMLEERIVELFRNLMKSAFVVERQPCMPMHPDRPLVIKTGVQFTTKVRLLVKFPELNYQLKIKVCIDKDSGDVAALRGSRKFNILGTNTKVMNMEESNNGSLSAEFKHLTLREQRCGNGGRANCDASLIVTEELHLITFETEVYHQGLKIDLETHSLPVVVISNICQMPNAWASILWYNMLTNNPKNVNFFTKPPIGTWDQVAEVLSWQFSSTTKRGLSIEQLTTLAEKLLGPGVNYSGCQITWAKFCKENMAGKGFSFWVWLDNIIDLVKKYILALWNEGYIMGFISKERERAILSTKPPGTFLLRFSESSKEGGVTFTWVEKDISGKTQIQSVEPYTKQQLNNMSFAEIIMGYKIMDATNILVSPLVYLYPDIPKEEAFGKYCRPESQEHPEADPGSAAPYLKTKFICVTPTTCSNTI
Protocol: An FP assay was developed to determine IC50 values for test substances.
Recombinant STAT3 protein (STAT3(G127-I722)) at 25 nM was combined with a fluorescently labeled, phosphotyrosine peptide probe (5-FAM-GpYLPQTV-NH2) at 2 nM in FP buffer (10 mM HEPES pH 7.4, 50 mM NaCl, 1 mM EDTA, 0.05% Tween 20, 2 mM DTT). 50 μL of STAT3-probe mixture was added to serial diluted compounds in black, 96-well plates (Greiner BioOne 655076) to a final concentration of 1% DMSO. Reaction components were mixed, and FP was measured after 45-minute incubation at room temperature using a Tecan Spark multimode plate reader. FP signal (mP) was plotted against the log concentration of the test substances and IC50 values were calculated by nonlinear regression analysis using GraphPad Prism software. For STAT3 FP assay, A=≤100 nM; B=>100-1000 nM; C=>1-10 μM; and D=>10 μM.

pSTAT3 = pSTAT3 (Homo sapiens, UniProt P40763); test: MSD-pSTAT-PBMC Assay (pSTAT3, IL-6 stimulated); type: cell-based
Chain of pSTAT3 (P40763 whole entry): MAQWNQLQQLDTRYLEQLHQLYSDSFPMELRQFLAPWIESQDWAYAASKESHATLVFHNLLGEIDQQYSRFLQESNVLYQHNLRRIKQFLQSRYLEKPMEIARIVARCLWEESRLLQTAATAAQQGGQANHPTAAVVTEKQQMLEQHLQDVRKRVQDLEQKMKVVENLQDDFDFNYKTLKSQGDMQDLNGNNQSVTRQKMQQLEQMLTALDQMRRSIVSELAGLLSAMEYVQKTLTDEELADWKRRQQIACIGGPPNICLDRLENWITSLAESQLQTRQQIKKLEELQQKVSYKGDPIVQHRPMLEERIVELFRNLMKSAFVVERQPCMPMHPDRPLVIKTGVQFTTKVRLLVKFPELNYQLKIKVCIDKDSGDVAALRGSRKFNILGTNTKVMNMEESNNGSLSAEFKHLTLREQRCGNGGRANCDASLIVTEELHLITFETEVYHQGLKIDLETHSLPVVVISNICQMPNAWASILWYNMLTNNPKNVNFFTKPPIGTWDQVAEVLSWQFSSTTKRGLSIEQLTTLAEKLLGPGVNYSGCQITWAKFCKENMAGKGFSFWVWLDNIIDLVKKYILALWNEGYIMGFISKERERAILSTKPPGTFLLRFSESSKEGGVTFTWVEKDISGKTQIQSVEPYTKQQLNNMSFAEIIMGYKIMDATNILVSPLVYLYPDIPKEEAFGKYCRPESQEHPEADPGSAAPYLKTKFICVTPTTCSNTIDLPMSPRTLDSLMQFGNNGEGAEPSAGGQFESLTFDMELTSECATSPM
Description: Cryopreserved Peripheral Blood Mononuclear Cells (PBMC) are from AllCells. Recombinant Human IL-4 and IL-6 are from Peprotech. Mouse monoclonal anti-STAT3 antibody, rabbit monoclonal anti-pY705-STAT3 antibody, rabbit monoclonal Anti-pY641-STAT6 antibody, and lysis buffer are from Cell Signaling Technology (CST). Mouse monoclonal anti-STAT6 antibody is from BioLegend. Assay plates, blocker, and anti-rabbit secondary antibody are from Meso Scale Discovery (MSD).
Cryopreserved PBMCs were thawed out and allowed to recover overnight in IMDM+10% heat-inactivated FBS prior to plating 50,000 (STAT3) or 25,000 (STAT6) cells per well in 96-well U-bottom tissue culture plates. Cells were treated with compound for 3 hrs, then stimulated with 10 ng/mL IL-6 (STAT3) or 1 ng/mL IL-4 (STAT6) for 10 min. Cells were then spun down and washed with ice-cold PBS prior to lysing the cell pellet with 1× lysis buffer (CST) with 1× HALT protease and phosphatase inhibitor cocktail (Thermo). Lysates were transferred to and incubated overnight at 4° C. with shaking in QuickPlex 96-well high bind assay plates (MSD) pre-coated overnight with 30 μL per well of […] mouse monoclonal anti-STAT3 antibody (STAT3) or 2 μg/mL mouse monoclonal anti-STAT6 antibody (STAT6) in 1× PBS, and pre-blocked for 1 hour with 3% Blocker-A (MSD). Captured protein in the assay plates were then washed and probed with 25 μL per well of […] rabbit monoclonal anti-pY705-STAT3 antibody (STAT3) or […] rabbit monoclonal Anti-pY641-STAT6 antibody (STAT6) in 1% Blocker-A for 1 hour at room temperature with shaking, then washed and probed with 25 ul per well of 1 ug/ml Sulfo-TAG Labeled Goat Anti-Rabbit Antibody (MSD) in 1% Blocker-A for 1 hour at room temperature with shaking. Assay plates were then washed and 150 μL of 1× Read Buffer-T (MSD) was added to each well prior to reading on an SQ120 MSD Plate Reader. Assay signal from each sample was subtracted by the signal from unstimulated control wells and normalized to DMSO control wells. IC50 values were calculated using Graph Pad Prism Dose-Response Nonlinear Regression with variable slope. For both pSTAT3 and pSTAT6 A=≤100 nM; B=>100-1000 nM; C=>1000-3000 nM; and D=>3 μM.

[1] = read-out: pSTAT3 IC50, compound 3 hrs, then 10 ng/mL IL-6 10 min, pY705-STAT3
[2] = compound 3 hrs, then 10 ng/mL IL-6 10 min, pY705-STAT3, read-out: pSTAT3 IC50

## Cn1c(=O)n(C2CCC(=O)NC2=O)c2ccc(C#CCCC3CCN(c4ccncc4C4CN(C(=O)[C@@H]5CC[C@@H]6CCC[C@H](NC(=O)c7cc8cc([C@@H](F)P(=O)(O)O)ccc8s7)C(=O)N65)C4)CC3)cc21 (stereo partly drawn) [Compound 40, ((1S)-(2-(((3S,6S,9aS)-3-(3-(4-(4-(4-(1-(2,6-dioxopiperidin-3-yl)-3-methyl-2-oxo-2,3-dihydro-1H-benzo[d]imidazol-5-yl)but-3-yn-1-yl)piperidin-1-yl)pyridin-3-yl)azetidine-1-carbonyl)-5-oxooctahydro-1H-pyrrolo[1,2-a]azepin-6-yl)carbamoyl)benzo[b]thiophen-5-yl)fluoromethyl)phosphonic acid]
STAT6
  IC50: > 30 µM
STAT3
  IC50: < 0.1 µM
pSTAT3; [1]
  IC50: < 0.1 µM

## O=C1CCC(c2ccc(OCCOCCOc3ccncc3C3CN(C(=O)[C@@H]4CC[C@@H]5CCC[C@H](NC(=O)c6cc7cc(C(F)(F)P(=O)(O)O)ccc7s6)C(=O)N54)C3)cc2)C(=O)N1 (stereo partly drawn) [Compound 11, ((2-(((3S,6S,9aS)-3-(3-(4-(2-(2-(4-(2,6-dioxopiperidin-3-yl)phenoxy)ethoxy)ethoxy)pyridin-3-yl)azetidine-1-carbonyl)-5-oxooctahydro-1H-pyrrolo[1,2-a]azepin-6-yl)carbamoyl)benzo[b]thiophen-5-yl)difluoromethyl)phosphonic acid]
STAT6
  IC50: 3 to 30 µM
STAT3
  IC50: < 0.1 µM
pSTAT3; [2]
  IC50: > 3 µM

## O=C(COc1cccc2c1C(=O)N(C1CCC(=O)NC1=O)C2=O)NCCOCCOCC(=O)NC1(c2ccccn2)CN(C(=O)[C@@H]2CC[C@H]3CCCC[C@H](NC(=O)c4cc5cc(C(F)(F)P(=O)(O)O)ccc5s4)C(=O)N32)C1 (stereo partly drawn) [Compound 32, ((2-(((3S,6S,10aR)-3-(3-(2-(2-(2-(2-((2-(2,6-dioxopiperidin-3-yl)-1,3-dioxoisoindolin-4-yl)oxy)acetamido)ethoxy)ethoxy)acetamido)-3-(pyridin-2-yl)azetidine-1-carbonyl)-5-oxodecahydropyrrolo[1,2-a]azocin-6-yl)carbamoyl)benzo[b]thiophen-5-yl)difluoromethyl)phosphonic acid]
STAT6
  IC50: 3 to 30 µM
STAT3
  IC50: < 0.1 µM
pSTAT3; [1]
  IC50: > 3 µM

## CCCOC(=O)[C@H](C)NP(=O)(Oc1ccccc1)[C@H](F)c1ccc2sc(C(=O)N[C@H]3CCC[C@H]4CC[C@@H](C(=O)N5CC(c6cnccc6N6CCC(CCC#Cc7ccc8c(c7)n(C)c(=O)n8C7CCC(=O)NC7=O)CC6)C5)N4C3=O)cc2c1 (stereo partly drawn) [Compound 39, propyl (((1S)-(2-(((3S,6S,9aS)-3-(3-(4-(4-(4-(1-(2,6-dioxopiperidin-3-yl)-3-methyl-2-oxo-2,3-dihydro-1H-benzo[d]imidazol-5-yl)but-3-yn-1-yl)piperidin-1-yl)pyridin-3-yl)azetidine-1-carbonyl)-5-oxooctahydro-1H-pyrrolo[1,2-a]azepin-6-yl)carbamoyl)benzo[b]thiophen-5-yl)fluoromethyl)(phenoxy)phosphoryl)-L-alaninate]
pSTAT3; [1]
  IC50: < 0.1 µM

## CCCC(=O)SCCOP(=O)(OCCSC(=O)CCC)C(F)(F)c1ccc2sc(C(=O)N[C@H]3CCC[C@H]4CC[C@@H](C(=O)N5CC(c6cnccc6OCCCCN[C@H](C(=O)N6C[C@H](O)C[C@H]6C(=O)NCc6ccc(-c7scnc7C)cc6)C(C)(C)C)C5)N4C3=O)cc2c1 [Compound 1, S,S((((difluoro(2-(((3S,6S,9aS)-3-(3-(4-(4-(((S)-1-((2S,4R)-4-hydroxy-2-((4-(4-methylthiazol-5-yl)benzyl)carbamoyl)pyrrolidin-1-yl)-3,3-dimethyl-1-oxobutan-2-yl)amino)butoxy)pyridin-3-yl)azetidine-1-carbonyl)-5-oxooctahydro-1H-pyrrolo[1,2-a]azepin-6-yl)carbamoyl)benzo[b]thiophen-5-yl)methyl)phosphoryl)bis(oxy))bis(ethane-2,1-diyl)) dibutanethioate]
pSTAT3; [2]
  IC50: 0.1 to 1 µM

## Cc1ncsc1-c1ccc([C@H](C)NC(=O)[C@@H]2C[C@@H](O)CN2C(=O)[C@@H](NC(=O)COCCOCCC(=O)NC2(c3ccccn3)CN(C(=O)[C@@H]3CC[C@H]4CCCC[C@H](NC(=O)c5cc6cc(C(F)(F)P(=O)(O)O)ccc6s5)C(=O)N43)C2)C(C)(C)C)cc1 [Compound 33, (difluoro(2-(((3S,6S,10aR)-3-(3-(3-(2-(2-(((S)-1-((2S,4R)-4-hydroxy-2-(((S)-1-(4-(4-methylthiazol-5-yl)phenyl)ethyl)carbamoyl)pyrrolidin-1-yl)-3,3-dimethyl-1-oxobutan-2-yl)amino)-2-oxoethoxy)ethoxy)propanamido)-3-(pyridin-2-yl)azetidine-1-carbonyl)-5-oxodecahydropyrrolo[1,2-a]azocin-6-yl)carbamoyl)benzo[b]thiophen-5-yl)methyl)phosphonic acid]
STAT6
  IC50: 3 to 30 µM
STAT3
  IC50: < 0.1 µM
pSTAT3; [1]
  IC50: > 3 µM

## Cn1c(=O)n(C2CCC(=O)NC2=O)c2ccc(C#CCCC3CCN(c4ccncc4C4CN(C(=O)[C@@H]5CC[C@@H]6CCC[C@H](NC(=O)c7cc8cc(C(F)(F)P(=O)(OCCSC(=O)C(C)(C)C)OCCSC(=O)C(C)(C)C)ccc8s7)C(=O)N65)C4)CC3)cc21 (stereo partly drawn) [Compound 35, S,S(((((2-(((3S,6S,9aS)-3-(3-(4-(4-(4-(1-(2,6-dioxopiperidin-3-yl)-3-methyl-2-oxo-2,3-dihydro-1H-benzo[d]imidazol-5-yl)but-3-yn-1-yl)piperidin-1-yl)pyridin-3-yl)azetidine-1-carbonyl)-5-oxooctahydro-1H-pyrrolo[1,2-a]azepin-6-yl)carbamoyl)benzo[b]thiophen-5-yl)difluoromethyl)phosphoryl)bis(oxy))bis(ethane-2,1-diyl)) bis(2,2-dimethylpropanethioate)]
pSTAT3; [2]
  IC50: < 0.1 µM

## CCCC(=O)SCCOP(=O)(OCCSC(=O)CCC)C(F)(F)c1ccc2sc(C(=O)N[C@H]3CCC[C@H]4CC[C@@H](C(=O)N5CC(c6cnccc6OCCOc6ccc(C7CCC(=O)NC7=O)cc6)C5)N4C3=O)cc2c1 (stereo partly drawn) [Compound 10, S,S(((((2-(((3S,6S,9aS)-3-(3-(4-(2-(4-(2,6-dioxopiperidin-3-yl)phenoxy)ethoxy)pyridin-3-yl)azetidine-1-carbonyl)-5-oxooctahydro-1H-pyrrolo[1,2-a]azepin-6-yl)carbamoyl)benzo[b]thiophen-5-yl)difluoromethyl)phosphoryl)bis(oxy))bis(ethane-2,1-diyl)) dibutanethioate]
pSTAT3; [2]
  IC50: < 0.1 µM
